Tests used:
[1] = refractive index (Na D-line) (dimensionless); details: 101.33 kPa, Liquid, Standard Abbe refractometry
[2] = for surface tension liquid-gas: Maximal bubble pressure; for mass density: 101.33 kPa, Liquid, Vibrating tube method

CCn1cc[n+](CCOC)c1.N#C[N-]C#N [1-ethyl-3-(2-methoxyethyl)imidazolium dicyanamide]
Details	mass density, [2] [kg/m3]	refractive index, [1]	surface tension liquid-gas, [2] [mN/m]
298.15 K	1113.6	1.5053	51
303.15 K	1110.21	1.504	50.7
308.15 K	1106.83	1.5028	50.4
313.15 K	1103.48	1.5017	50.1
318.15 K	1100.15	1.5	49.8
323.15 K	1096.84	1.4989	49.5
328.15 K	1093.53	1.4977	49.3
333.15 K	1090.26	1.496	49.1
338.15 K	1087	1.4946	48.8

Reference: the NIST ThermoML archive (doi:10.1016/j.jct.2017.03.016)
